# Patent US6630572B1, “Thrombin derived polypeptides: compositions and methods for use” (The Board of Regents, University of Texas Syatems, priority 1986, dated 2003)
# Ends that are not written are not given here.
# Legend:
# [1] = test system: high-affinity thrombin receptor; assay: Competition for specific [125I]-alpha-thrombin binding to ME cells; design: species or system mouse; conditions: for fold higher concentration than p508-530 required for 30% inhibition of [125I]-alpha-thrombin binding: ME cells; for Conc. at Maximal % Inhibition / Concentration Required for 30% Inhibition / Maximal % Inhibition: [125I]-alpha-thrombin (1 nM), quiescent ME cells; for Concentration Required for 30% Inhibition / Maximal % Inhibition: 23° C.; for Maximal % Inhibition: at the conc. printed below the value
# Experimental: Specific techniques whereby the competitive binding studies were performed are set out below. Human alpha-thrombin was iodinated in the presence of benzamidine (an active-site competitive inhibitor), lactoperoxidase, and Na[^125I]. […] These iodinated preparations retained approximately 80% of their fibrinogen clotting activity. The ability of the synthetic peptides to compete for specific [^125I]-alpha-thrombin binding to fibroblasts was measured on nonproliferating, mitogenically responsive cultures in 24 well plates (Falcon) at a cell density of approximately 5×10^4 cells/cm^2 as previously described (Carney and Cunningham, Cell, 15:1341-1349 (1978)). The medium on the cells was changed to binding medium (serum-free DV medium containing 0.5% (w/v) bovine serum albumin buffered with 15 mM HEPES at pH 7.0). The cells were equilibrated at 23° C. for 30 minutes, and the medium was changed to binding medium containing [^125I]-alpha-thrombin (10 ng/ml) with the indicated concentrations of the peptides. After 2 hours at 23° C., the assay was terminated by quickly rinsing the cells four times with ice-cold PBS. The cells were dissolved in 1 ml of 0.5 N NaOH and the total radioactivity was measured using a Beckman gamma counter. Nonspecific binding was measured as the radioactivity bound to cultures after incubation in binding medium containing a 100-fold excess of unlabeled alpha-thrombin. Specific binding was calculated by subtracting nonspecific binding from total radioactivity bound to cultures. […] Scatchard analysis of the direct binding of [^125I]-labeled p508-530 indicated a KD of approximately 6×10^−8 M (data not shown). […] Various concentrations of peptides and [^125I]-alpha-thrombin (1 nM) were incubated with quiescent ME cells for […] at 23° C. Specific binding of [^125I]-alpha-thrombin was defined as described in Example 3.
# NIL cells = assay: [3H]-thymidine incorporation (DNA synthesis) in quiescent NIL cells; assay type: cell-based, hamster; conditions: for effect on alpha-thrombin stimulated DNA synthesis: quiescent NIL cells, increasing peptide concentrations, 2 and 4 nM alpha-thrombin, FIG. 6
# Experimental: Primary cultures of fibroblasts were prepared from 9- to 13-day old embryos of NIH-swiss outbred mice as described by Carney and Cunningham, Cell, 15:1341-1349, (1978). NIL cells, an established strain of hamster fibroblasts, were maintained as stock cultures and subcultured every four days. All cells were grown in Dulbecco-Vogt modified Eagle's (DV) medium supplemented with 10% (v/v) bovine calf serum (CS), in a humidified atmosphere of 5% CO2 in air at 37° C. Quiescent cultures were prepared by subculturing stock cells from 100 mm dishes, using 0.05% (w/v) trypsin and 0.02% EDTA (w/v) in phosphate-buffered saline (PBS) and plating them in 24-well culture plates in DV medium supplemented with 10% (v/v) CS at 6×10^4 cells/cm^2. After allowing the cells to attach overnight, the medium was removed and the cells were rinsed with DV medium containing no serum. The cells were incubated in this serum-free medium for 48 hours before the indicated experiments. […] The effects of the synthetic peptides on DNA synthesis were determined by measuring the incorporation of methyl-[^3H]-thymidine (TdR, ICN Pharmaceuticals, Irvine, Calif.) during a 2 hour incubation generally from 22 hours after addition of peptides and/or thrombin (Stiernberg et al., J. Cell Physiol., 120:209-285 (1984)). After incubation, the cells were extracted and rinsed with ice-cold 10% (w/v) trichloroacetic acid (TCA). The acid precipitable material was dissolved overnight in 0.5 ml 0.5 N KOH at 23° C. HCl (1 N), 0.25 ml, was added and the solution was counted in 10 ml of RediSolv-HPb (Beckman Instruments, Houston, Tex.) scintillation fluid. The present inventors first tested the ability of p508-530 to stimulate DNA synthesis in non-proliferating cultures of ME or NIL cells. […] However, in combination with 2 nM alpha-thrombin, 0.1 uM p508-530 stimulated a 6- or greater than 2-fold increase in incorporation of [^3H]-thymidine into DNA in ME cells when compared to parallel cultures left untreated or treated with alpha-thrombin alone, respectively (FIG. 4A). A similar mitogenic stimulation was also observed in NIL hamster cells, although it required a slightly higher concentration of thrombin and peptides (FIG. 4B). […] With NIL cells, a similar correlation was observed between the mitogenic concentrations of p508-530 and the concentrations required to inhibit thrombin binding, although at higher levels than required with ME cells. […] It was predicted, therefore, that if p508-530 was generating a receptor occupancy-related signal, its addition to cells in combination with PMA should stimulate mitogenesis. […] This stimulation occurred at approximately the same concentration of peptide as that required to stimulate DNA synthesis in the presence of low concentrations of alpha-thrombin. […]
# ME cells = assay: [3H]-thymidine incorporation (DNA synthesis) in quiescent ME cells; assay type: cell-based, mouse; conditions: for inhibition of alpha-thrombin stimulated DNA synthesis: 625 nM peptide, FIG. 7
# Experimental: Primary cultures of fibroblasts were prepared from 9- to 13-day old embryos of NIH-swiss outbred mice as described by Carney and Cunningham, Cell, 15:1341-1349, (1978). NIL cells, an established strain of hamster fibroblasts, were maintained as stock cultures and subcultured every four days. All cells were grown in Dulbecco-Vogt modified Eagle's (DV) medium supplemented with 10% (v/v) bovine calf serum (CS), in a humidified atmosphere of 5% CO2 in air at 37° C. Quiescent cultures were prepared by subculturing stock cells from 100 mm dishes, using 0.05% (w/v) trypsin and 0.02% EDTA (w/v) in phosphate-buffered saline (PBS) and plating them in 24-well culture plates in DV medium supplemented with 10% (v/v) CS at 6×10^4 cells/cm^2. After allowing the cells to attach overnight, the medium was removed and the cells were rinsed with DV medium containing no serum. The cells were incubated in this serum-free medium for 48 hours before the indicated experiments. […] The effects of the synthetic peptides on DNA synthesis were determined by measuring the incorporation of methyl-[^3H]-thymidine (TdR, ICN Pharmaceuticals, Irvine, Calif.) during a 2 hour incubation generally from 22 hours after addition of peptides and/or thrombin (Stiernberg et al., J. Cell Physiol., 120:209-285 (1984)). After incubation, the cells were extracted and rinsed with ice-cold 10% (w/v) trichloroacetic acid (TCA). The acid precipitable material was dissolved overnight in 0.5 ml 0.5 N KOH at 23° C. HCl (1 N), 0.25 ml, was added and the solution was counted in 10 ml of RediSolv-HPb (Beckman Instruments, Houston, Tex.) scintillation fluid. The present inventors first tested the ability of p508-530 to stimulate DNA synthesis in non-proliferating cultures of ME or NIL cells. […] In order to explain the mechanism by which p517-520 was able to inhibit thrombin-mediated mitogenesis, the inventors measured the ability of increasing concentrations of alpha-thrombin to stimulate DNA synthesis in cultures to which a constant concentration (625 nM) of p517-520 had been added (FIG. 7). […]
# fibroblast = conditions: compared with fibronectin-specific peptides; cited from earlier work
Substance,mitogenesis (summary statement) (NIL cells),effect on alpha-thrombin stimulated DNA synthesis (NIL cells),promotion of fibroblast attachment (fibroblast),fold higher concentration than p508-530 required for 30% inhibition of [125I]-alpha-thrombin binding [1] [fold],Conc. at Maximal % Inhibition [1],Concentration Required for 30% Inhibition [1] [nM],Maximal % Inhibition [1] [%],other results
Arg-Gly-Ala-Ser (RGAS; printed: Arg-Gly-Ala-Ser) [reference compound],,,,,,,,competition with [125I]-alpha-thrombin for binding ([1]; concentration of 1.3 uM): did not compete
Arg-Gly-Asp-Ala (RGDA; Fragment of human prothrombin) [p517-520],without inducing mitogenesis,inhibited DNA synthesis,comparable to that induced by fibronectin-specific peptides,50,(2.7 uM),300,50,molar excess of peptide required for inhibition of alpha-thrombin stimulation (ME cells): 500-1000 fold; inhibition of alpha-thrombin stimulated DNA synthesis (ME cells; 0.8 nM alpha-thrombin): approximately 75%; inhibition of alpha-thrombin stimulated DNA synthesis (ME cells; 13.0 nM alpha-thrombin): ~35%
"DACEGDSGGPFV [p519-530, peptide representing residues 519 to 530 of the B-chain region of human prothrombin]",retains the ability to mediate mitogenesis but to a much lesser degree than p508-530,enhanced DNA synthesis,,33,(800 Nm),200,51,
p510-526: peptide representing 510-526 of human prothrombin (TKPDEGKRGDACEGDSG; Fragment of human prothrombin),,,comparable to that induced by fibronectin-specific peptides,,,,,
p516-522: peptide representing 516-522 of human prothrombin (KRGDACE; Fragment of human prothrombin),,,comparable to that induced by fibronectin-specific peptides,,,,,
